In experiment [1] the target is T1, GPCR HM74A (niacin receptor) (Homo sapiens, UniProt Q8TDS4).
T1 construct: expressed in transfected cells; host or cells: HEK293
Briefly: FLIPR in vitro functional assay, intracellular Ca2+ in recombinant HEK293 cells expressing HM74A and Gα6qi4myr. Format: cell-based. The following applies: 100% = 1 μM niacin. How it is done:
Function-testing assays were carried out by means of the FLIPR technique (“Fluorescence Imaging Plate Reader”, Molecular Devices Corp.). For this purpose, agonist-induced changes in the intracellular concentration of Ca^2+ in recombinant HEK293 cells which express both the GPCR HM74A (niacin receptor) and the hybrid G-protein Gα6qi4myr (see, for example, DE patent application 10033353) were determined.
For the investigations, cells were seeded into 96-well microtiter plates (60 000 cells/well) and allowed to grow overnight. The medium was removed and the cells were incubated in buffer which contained the fluorescent dye Fluo-4. After this loading with dye, the cells were washed, test substance was added, and changes in the intracellular Ca^2+ concentration were measured in the FLIPR apparatus. Results have been shown as percentage change relative to the control (0%: no test substance added; 100%:1 μM reference agonist niacin added), used to calculate dose/activity plots and EC50 values determined.

The next experiment deals with lipolysis. The experiment can be described thus: Inhibition of lipolysis in the whole animal after p.o. administration (FFA, glycerol, triglycerides in blood). Format: in vivo, Wistar rats. The following applies: 3 mg/kg po. How it is done: The effect was tested on the whole animal (mouse, rat, hamster or dog), after a fasting period (e.g. of about 16 hours the substance is administered (e.g. p.o., iv., i.p., s.c.) and, with or without additional stimulation of endogenous lipolysis (e.g. by a bolus injection of 2 mg/kg i.p. isoprenaline), the effect of the test substance on lipolysis is determined on the basis of the liberated free fatty acids (FFA), glycerol and triglycerides by obtaining a blood sample (e.g. by retroorbital blood sampling) e.g. 15 min, 30, 60, 120 etc minutes after p.o. administration, and analyzing by standard methods of clinical chemistry (e.g. L. Thomas: Labor and Diagnose, 2nd edition, Medizinische Verlagsgesellschaft, Marburg/L. 1984; ISBN 3-921320-10-9)). The inhibition of lipolysis by the inhibitors is analyzed by comparing with the rate of lipolysis in correspondingly treated control animals.

T1 sequence (Q8TDS4 whole entry): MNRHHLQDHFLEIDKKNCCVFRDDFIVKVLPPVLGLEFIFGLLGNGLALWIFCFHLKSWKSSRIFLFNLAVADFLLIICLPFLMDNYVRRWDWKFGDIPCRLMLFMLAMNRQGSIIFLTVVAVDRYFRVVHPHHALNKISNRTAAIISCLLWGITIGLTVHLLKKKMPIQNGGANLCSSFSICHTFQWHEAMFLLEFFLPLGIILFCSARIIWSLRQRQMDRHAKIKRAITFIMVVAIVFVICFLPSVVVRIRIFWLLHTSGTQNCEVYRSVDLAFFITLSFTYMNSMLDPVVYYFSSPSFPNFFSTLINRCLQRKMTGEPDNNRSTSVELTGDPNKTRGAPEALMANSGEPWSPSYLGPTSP

By EC50 is commonly meant the concentration giving half of the maximal effect. Turning to `O=C(O)c1cc(=O)cco1` [Example 1], the EC50 in experiment [1] amounted to 90 nM. For the same compound, in the experiment with lipolysis, the “lipolysis (reduction in FFA, glycerol and triglycerides)” value was “distinctly reduced”. Moreover, the FFA in the experiment on lipolysis (15 min, Wistar rats) was 0.22 mmol/L; in the experiment on lipolysis (30 min, Wistar rats), 0.14 mmol/L; in the experiment with lipolysis (60 min, Wistar rats) it was 0.16 mmol/L; in the experiment on lipolysis (120 min, Wistar rats), 0.28 mmol/L; in the experiment on lipolysis (time 0, Wistar rats), 0.55 mmol/L. The Glycerol with lipolysis (15 min, Wistar rats) stood at 55 µmol/L; with lipolysis (30 min, Wistar rats), 43 µmol/L; in the experiment with lipolysis (60 min, Wistar rats) it was 43 µmol/L; with lipolysis (120 min, Wistar rats), 74 µmol/L; with lipolysis (time 0, Wistar rats), 117 µmol/L. For the same compound, the Triglycerides with lipolysis (15 min, Wistar rats) came out at 0.48 mmol/L; in the experiment on lipolysis (30 min, Wistar rats), 0.28 mmol/L; with lipolysis (60 min, Wistar rats) it was 0.21 mmol/L; in the experiment on lipolysis (120 min, Wistar rats), 0.25 mmol/L; with lipolysis (time 0, Wistar rats), 0.53 mmol/L.

The values are drawn from US8748483B2, “Use of substituted pyranone acid derivatives for the treatment of metabolic syndrome” (SANOFI, priority 2007, dated 2014).
